Consider five compounds from US20220072061A1, “SUBSTANCE FOR TREATMENT OR PREVENTION OF DISEASES, METHOD FOR DESIGNING THE SAME, AND METHOD FOR PREPARING THE SAME” (priority 2018, published 2022).

Counter-ions that a name gives are not always drawn.

The test system of one data set is patients with menoxenia. The data set can be described thus: Clinical study against menoxenia. In kind it is in vivo, human. The text has this:
1. Clinical data: 60 cases (in total) of outpatients and inpatients with menoxenia were enrolled, and randomly divided into a treatment group of 30 patients and a control group of 30 patients. There was no significant difference between the two groups in clinical data.
2. Diagnosis criteria: Symptoms include disorders in the menstrual cycle and menstrual period, excessive or insufficient bleeding during menstruation, and abdominal pain before and after menstruation.
3. […] Patients in the control group were orally given clomifene citrate capsules (NMPA Approval No. H31021107), 50 mg/day, started on day 5 since menstruation, for 2 consecutive months.
4. Efficacy evaluation criteria: The efficacy evaluation is based on the relevant standards in Guiding Principles for Clinical Research of New Chinese Medicines.
(§1) Total effective rate=cured rate+effective rate.

The test system of a further data set is patients with depression. The data set can be described thus: Clinical study against depression. The class given is in vivo, human. How it is done: 1. Clinical data: 60 cases (in total) of outpatients and inpatients with depression were enrolled, and randomly divided into a treatment group of 30 patients and a control group of 30 patients. There was no significant difference between the two groups in clinical data.
2. Diagnosis criteria: The diagnosis criteria for depression from The Diagnostic and Statistical Manual of Mental Disorders.
3. […] Patients in the control group were treated with fluoxetine, the initial and treatment doses both being 20 mg/day, for a course of 4 weeks.
4. Efficacy evaluation criteria: After 4 weeks of treatment, the patients were scored by a psychiatrist based on the Hamilton Depression Rating Scale HAMD-17. “Cured” means a HAMD-17 total score <7; “effective” means a HAMD-17 total score of 8-17; and “ineffective” means a HAMD-17 total score>17.
as §1

Data set [1] has as its system patients with allergic rhinitis. The data set can be described thus: Clinical application trial for treatment of allergic rhinitis. The class given is in vivo, human. How it is done: There was no significant difference between the two groups in clinical data and conditions. […] Diagnosis criteria: 2 or more clinical symptoms such as sneezing, clear water-like nasal discharge, nasal congestion, and nasal itching, appearing continuously or continually for 1 hour or more every day. It may be accompanied by eye symptoms such as eye itching and conjunctival hyperemia. Common signs often include pale nasal mucosa, edema, and watery nasal discharge. Positive in the allergen skin prick test. 3. […] 4. […] Total effective rate=cured rate+effective rate.

Another data set has as its system patients with urticaria. The data set can be described thus: Clinical study against urticaria. The class given is in vivo, human. The method, then: 1. […]. There was no significant difference between the two groups in clinical data.
3. […] The patients in the control group orally took loratadine 5 mg per time, once day, for 30 days.
(§2) 4. […] Total effective rate=cured rate+markedly effective rate+effective rate.

Data set [2] concerns patients with ankylosing spondylitis. The data set can be described thus: Clinical study in patients with ankylosing spondylitis. The class given is in vivo, human. The note with it: number of patients (14 treatment, 13 control); after 1 month. The text has this: 1. […] 2. […] 3. […] 4. Efficacy evaluation criteria:
A further data set deals with hypertensive patients. Put plainly: Clinical study against hypertension. The note with it: human, in vivo. The method, then:
1. Clinical data: In this example, totally 46 hypertensive patients were treated and observed clinically, including 25 males and 21 females, 18-75 years old, with a course of disease of 0.5 to 30 years, who were randomly divided into a treatment group of 23 patients and a control group of 23 patients. There was no significant difference between the two groups in clinical data.
2. Diagnosis criteria: According to the Guidelines for Diagnosis of Hypertension in China (2010), hypertension can be diagnosed if the systolic pressure≥140 mmHg and/or the diastolic pressure≥90 mmHg. Grade 1 hypertension: systolic pressure 140 to 159 mmHg and/or diastolic pressure 90 to 99 mmHg; Grade 2 hypertension: systolic pressure 160 to 179 mmHg and/or diastolic pressure 100 to 109 mmHg; Grade 3 hypertension: systolic pressure≥180 mmHg and/or diastolic pressure≥110 mmHg.
3. […] Patients in the control group orally took Levamlodipine Beslate and losartan potassium tablets, 3 times a day under supervision of a physician, and the dose was maintained for 3 months or more.
as §2

Where [3] appears, read: number of patients of 30, allergic rhinitis.
[4] abbreviates: number of patients of 28, chronic urticaria.

Regarding `CCN(CC)CCOc1ccc(C(=C(Cl)c2ccccc2)c2ccccc2)cc1` [clomifene citrate capsules, clomifene citrate], the “Total effective rate (%)” value in the data set with patients with menoxenia (after treatment) is listed as 66.67%. In the data set on patients with menoxenia (number of patients of 30), this compound gave a Cured of 0, an Effective of 10 and a Markedly effective of 10.
As to `CNCCC(Oc1ccc(C(F)(F)F)cc1)c1ccccc1` (centres unmarked) [fluoxetine], the “Total effective rate (%)” value in the data set on patients with depression (cured rate+effective rate, depression, after 4 weeks) is listed as 76.67%. In the data set with patients with depression (number of patients of 30, HAMD-17 total score <7 after 4 weeks), this compound showed a Cured of 9. In the data set on patients with depression (number of patients of 30, HAMD-17 total score >17 after 4 weeks), this compound showed an Ineffective of 7. In the data set with patients with depression (number of patients of 30, HAMD-17 total score of 8-17 after 4 weeks), this compound had an Effective of 14.
For `CCOC(=O)N1CCC(=C2c3ccc(Cl)cc3CCc3cccnc32)CC1` [loratadine], in data set [1] (6-month follow-up / after drug discontinuance), the recurrence result is recorded as “allergic symptoms appeared after contact with allergens after drug discontinuance”. The “drug adverse reaction or drug dependence” value in data set [1] (during the treatment, of 30 patients) was found to be 5 cases. Also, the Effective in data set [1] (setting [3]) is 20; in the data set on patients with urticaria (number of patients of 28, wheal subsided by 50% to 80%), 6. Moreover, the Ineffective is reported as 10 in data set [1] (setting [3]) and 13 in the data set with patients with urticaria (setting [4]). Moreover, the Cured is listed as 0 in data set [1] (number of patients of 30, allergic rhinitis, no recurrence for 60 days) and 0 with patients with urticaria (setting [4]). In addition, the “Total effective rate (%)” value in the data set on patients with urticaria (cured rate+markedly effective rate+effective rate, chronic urticaria) was determined as 53.57%. The compound also returned a Markedly effective in the data set with patients with urticaria (number of patients of 28, wheal subsided by 80% or more) of 9.
Regarding `O=C(O)c1cc(/N=N/c2ccc(S(=O)(=O)Nc3ccccn3)cc2)ccc1O` [sulfasalazine enteric tablets, sulfasalazine], in data set [2], the Effective is 5, the Ineffective was 6 and the Markedly effective was found to be 2.
In the data set with hypertensive patients, “Levamlodipine Beslate and losartan potassium” yielded an adverse drug reactions of 6 cases and a drug dependence of 4 cases.
